The values below come from patent US11744819B2, “Antibiotic cannabinoid-terpene formulations” (priority 2019, dated 2023).

In experiment [1] the test system is E. faecium VRE 55A6. As to the kind of experiment: microbe, parasite or virus in culture. It counts as cell-based, Enterococcus faecium. The following applies: E. faecium VRE 55A6. From the text: In therapeutic applications, synergy between active ingredients occurs when an observed combined therapeutic effect is greater than the sum of therapeutic effects of individual active ingredients, or a new therapeutic effect is produced that the active ingredients could not produce alone. […] In this context, the enhancement of therapeutic effect may take the form of increased efficacy or potency and/or decreased adverse effects. The synergistic effect may be mediated in whole or in part by the pharmacokinetics and/or pharmacodynamics of the active ingredients in a subject, so that the amount and proportion of the ingredients in the formulation may be synergistic in vivo. This in vivo synergy may be effected with a formulation that includes the active ingredients in amounts and proportions that are also synergistic in in vitro assays of efficacy. As used herein, the term “synergistically effective amounts” accordingly refers to amounts that are synergistic in vivo and/or in vitro. A numeric quantification of synergy is often expressed as a fractional inhibitory concentration index (FICI), which represents the sum of the fractional inhibitory concentrations (FICs) of each drug tested, where the FIC is determined for each drug by dividing the minimum inhibitory concentration (MIC, the lowest concentration of the drug which prevents visible growth of the bacterium in a standard in vitro assay-standard colorometric assay based on resazurin) of each drug when used in combination by the MIC of each drug when used alone. In very general terms, a FICI lower or higher than 1 indicates positively correlated activity (at least additive or potentiation) or an absence of positive interactions, respectively. More definitively, synergy of two compounds may be conservatively defined as a FICI of ::::0.5 (see Odds, 2003; with additivity or potentiation corresponding to a FICI of >0.5 to ::::0.75; no interaction (indifference) corresponding to a FICI of >1 to ::::4; and antagonism corresponding to a FICI of >>4). […] (Berenbaum, 1978; Yu et al., 1980). To estimate the optimal concentrations in triple combinations, the optimal concentrations of trans-caryophyllene and cannabinoid were utilized in combination with a series of daptomycin dilutions.
(§1) Pre-cultures of bacteria growing in their corresponding liquid media (defined below) were diluted to an 00600 of 0.0025 and 100 μl was added to 100 μl of medium containing serial 2-fold dilutions of cannabinoid (cannabinoid stocks, in methanol or acetonitrile for acidic forms, were diluted in growth medium) in 96-well plates. Plates were then incubated for 20-24 h at 37° C., and growth was recorded as 00600 in a Thermo Scientific™ Varioskan™ Flash Multimode Reader.
(§2) FICI values was determined in a 96 well checkerboard format using the MIC assay for cannabinoids (compound A), terpenes (compound B), and daptomycin (compound C) alone and in combinations. Terpene stocks were prepared in DMSO and diluted in the growth medium. The fractional inhibitory concentration for each compound was calculated as follows: FICA=(MIC of compound A in the presence of compound B)/(MIC of compound A alone). Similarly, the FICs for compounds Band C were calculated. The FICI was calculated as FICA plus FICs plus FICc.

Experiment [2] has as its system E. faecium 3303. Put plainly: microbe, parasite or virus in culture. The following applies: for MIC Alone / MIC In combination / Max. fold change in MIC: E. faecium 3303; for MIC Alone: compound alone in checkerboard; for Max. fold change in MIC: decrease; for activities of the terpene with CBC, CBO, or CBG: terpene-cannabinoid combinations. It counts as cell-based, Enterococcus faecium.
Excerpt: In therapeutic applications, synergy between active ingredients occurs when an observed combined therapeutic effect is greater than the sum of therapeutic effects of individual active ingredients, or a new therapeutic effect is produced that the active ingredients could not produce alone. […] In this context, the enhancement of therapeutic effect may take the form of increased efficacy or potency and/or decreased adverse effects. The synergistic effect may be mediated in whole or in part by the pharmacokinetics and/or pharmacodynamics of the active ingredients in a subject, so that the amount and proportion of the ingredients in the formulation may be synergistic in vivo. This in vivo synergy may be effected with a formulation that includes the active ingredients in amounts and proportions that are also synergistic in in vitro assays of efficacy. As used herein, the term “synergistically effective amounts” accordingly refers to amounts that are synergistic in vivo and/or in vitro. A numeric quantification of synergy is often expressed as a fractional inhibitory concentration index (FICI), which represents the sum of the fractional inhibitory concentrations (FICs) of each drug tested, where the FIC is determined for each drug by dividing the minimum inhibitory concentration (MIC, the lowest concentration of the drug which prevents visible growth of the bacterium in a standard in vitro assay-standard colorometric assay based on resazurin) of each drug when used in combination by the MIC of each drug when used alone. In very general terms, a FICI lower or higher than 1 indicates positively correlated activity (at least additive or potentiation) or an absence of positive interactions, respectively. More definitively, synergy of two compounds may be conservatively defined as a FICI of ::::0.5 (see Odds, 2003; with additivity or potentiation corresponding to a FICI of >0.5 to ::::0.75; no interaction (indifference) corresponding to a FICI of >1 to ::::4; and antagonism corresponding to a FICI of >>4). Synergy of three compounds has been defined as a FICI of ::::1.0. (Berenbaum, 1978; Yu et al., 1980). To estimate the optimal concentrations in triple combinations, the optimal concentrations of trans-caryophyllene and cannabinoid were utilized in combination with a series of daptomycin dilutions.
as §1
Method for Tables 4-7. Interaction of Cannabinoids CBC, CBD and CBG with Terpenes and Daptomycin:
as §2

The subject of experiment [3] is Enterococcus faecium 33D3.
For experiment [4], the system named is E. faecium clinical isolate 69C6 (vancomycin resistant). The following applies: clinical enterococcal strain 69C6, vancomycin resistant.
Experiment [5] relates to Mycobacterium tuberculosis H37Rv. As to the kind of experiment: MIC determination (PrestoBlue). The experiment is classed as cell-based.
Experiment [6] relates to Enterococcus faecalis. As to the kind of experiment: MIC determination. The experiment is classed as cell-based.
Experiment [7] deals with E. faecium clinical isolate 55A6 (vancomycin and daptomycin resistant). The following applies: clinical enterococcal strain 55A6, vancomycin and daptomycin resistant.
Experiment [8] relates to Staphylococcus epidermidis ATCC 12228. Put plainly: MIC determination. It counts as cell-based. The following applies: Staphylococcus epidermidis, ATCC12228.
Experiment [9] deals with E. faecium clinical isolate 58C9 (vancomycin and daptomycin resistant). The following applies: clinical enterococcal strain 58C9, vancomycin and daptomycin resistant.
Experiment [10] has as its system Staphylococcus aureus MRSA. As to the kind of experiment: microbe, parasite or virus in culture. It counts as cell-based.
Experiment [11] deals with Mycobacterium abscessus ATCC 19977. Put plainly: MIC determination (resazurin). It counts as cell-based. A general note: The colour change of resazurin is a common sign of viable cells or microbes.
Experiment [12] concerns Streptococcus pyogenes ATCC 51878. Put plainly: MIC determination. The experiment is classed as cell-based. The following applies: Streptococcus pyogenes, ATCC51878.
In experiment [13] the test system is Staphylococcus epidermidis ATCC 14990. Put plainly: MIC determination. The following applies: Staphylococcus epidermidis, ATCC14990. The experiment is classed as cell-based.
In experiment [14] the test system is Enterococcus faecium 33D3. Put plainly: microbe, parasite or virus in culture.
The subject of experiment [15] is E. faecium clinical isolate 55A6 (vancomycin and daptomycin resistant). Put plainly: microbe, parasite or virus in culture. The following applies: Enterococcus faecium.
Experiment [16] concerns E. faecium clinical isolate 58C9 (vancomycin and daptomycin resistant). As to the kind of experiment: microbe, parasite or virus in culture. The following applies: Enterococcus faecium.
Experiment [17] deals with E. faecium clinical isolate 69C6 (vancomycin resistant). Put plainly: microbe, parasite or virus in culture. The following applies: Enterococcus faecium.
[18] abbreviates: triple, with daptomycin and CBC.
Setting [19] is: triple, with daptomycin and CBD.
[20] abbreviates: triple, with daptomycin and CBG.
[21] abbreviates: 33D3, Enterococcus faecium 33D3 (Table 1).
[22] abbreviates: 33D3, clinical enterococcal strain 3303.
Setting [23] is: Mycobacterium tuberculosis, H37RV, Media 7H9, read-out: MIC.
Where [24] appears, read: Mycobacterium tuberculosis, H37RV, Media PB, read-out: MIC.
Setting [25] is: Mycobacteroides abscessus, ATCC19977.

Values after ≈ are worked out from the molar mass of the structure shown. Values joined by “and” are separate entries in the source; they are usually repeats but may differ in a detail not shown here. Equal values may be shown once. Read-outs that look alike come from different tables or passages of the source. Bounds are passed on as bounds.

Turning to `C=C1CC/C=C(\C)CC[C@@H]2[C@@H]1CC2(C)C` (relative stereo) [Trans-caryophyllene, trans-caryophyllene], the “MIC In combination” value in experiment [1] (pairwise, with CBC) is 1 µg/mL; in [1] (pairwise, with CBD) it was 8 µg/mL; in [1] (pairwise, with CBG), greater than 32 µg/mL; in experiment [1] (pairwise, with daptomycin) it was 2 µg/mL; in experiment [1] (setting [18]) it was 2 µg/mL; in experiment [1] (setting [19]) it was 2 µg/mL. In addition, the “MIC In combination” value in experiment [1] (setting [20]) is 2 µg/mL; in [2] (pairwise, with CBC), 0.25 µg/mL; in experiment [2] (pairwise, with CBD), 2 µg/mL; in experiment [2] (pairwise, with CBG), 4 µg/mL; in [2] (pairwise, with daptomycin), 4 µg/mL; in experiment [2] (setting [18]), 2 µg/mL. In addition, the entries for the “MIC In combination” value in experiment [2] (setting [19]) and in experiment [2] (setting [20]) were 2 µg/mL and 1 µg/mL, respectively. In addition, the “Max. fold change in MIC” value in [1] (pairwise, with CBC) is greater than 32 fold; in experiment [1] (pairwise, with CBD), greater than 4 fold; in experiment [1] (pairwise, with CBG) it was “none”; in [1] (pairwise, with daptomycin) it was greater than 8 fold; in [1] (setting [18]) it was greater than 32 fold; in experiment [1] (setting [19]), greater than 32 fold. The “Max. fold change in MIC” value was greater than 32 fold in [1] (setting [20]); 64 l fold in experiment [2] (pairwise, with CBC); 8″′ fold in experiment [2] (pairwise, with CBG); >4 l fold and >4″′ fold in [2] (pairwise, with daptomycin); 8 l fold in experiment [2] (setting [18]); 8 fold in experiment [2] (setting [19]). The “Max. fold change in MIC” value in experiment [2] (setting [20]) was found to be 16 fold. The “MIC Alone” value is >16 µg/mL and 16 µg/mL in experiment [2]; 32 µg/mL in [2] (listed as Tram-caryophyllene). Besides, the “activities of the terpene with CBC, CBO, or CBG” value in experiment [2] is on record as “synergistic activities”.
In the case of `CCCCCc1cc2c(c(O)c1C(=O)O)C=CC(C)(CCC=C(C)C)O2` (stereo not shown) [CBCA, cannabichromic acid], the MIC in experiment [3] (Enterococcus faecium 33D3 (Table 1)) was 4 µg/mL (≈ 11.2 µM); in experiment [3] (clinical enterococcal strain 3303), 4 µg/mL (≈ 11.2 µM); in experiment [4], 4 µg/mL (≈ 11.2 µM); in [5] (Media 7H9) it was 2 µg/mL (≈ 5.58 µM); in [5] (Media PB), 4 µg/mL (≈ 11.2 µM); in [6], 4 µg/mL (≈ 11.2 µM). Moreover, the MIC in [7] was 2 µg/mL (≈ 5.58 µM); in experiment [8] it was 2 µg/mL (≈ 5.58 µM); in experiment [9], 4 µg/mL (≈ 11.2 µM); in experiment [10] it was 4 µg/mL (≈ 11.2 µM); in experiment [11] (Mycobacterium abscessus ATCC 19977), 4 µg/mL (≈ 11.2 µM); in experiment [12], 0.5 to 1 µg/mL. Further, in experiment [13], the MIC is 2 µg/mL (≈ 5.58 µM).
For `C=C(C)[C@@H]1CCC(C)=C[C@H]1c1c(O)cc(CCCCC)c(C(=O)O)c1O` [CBDA, cannabidiolic acid], the MIC in [14] (setting [21]) was 16 µg/mL (≈ 44.6 µM); in experiment [14] (setting [22]), 16 µg/mL (≈ 44.6 µM); in experiment [15] it was 16 µg/mL (≈ 44.6 µM); in [16] it was 16 µg/mL (≈ 44.6 µM); in experiment [5] (setting [23]), 2 µg/mL (≈ 5.58 µM); in [5] (setting [24]), 4 µg/mL (≈ 11.2 µM). The MIC in experiment [6] amounted to 16 µg/mL (≈ 44.6 µM); in experiment [17] it was 16 µg/mL (≈ 44.6 µM); in [8], 4 µg/mL (≈ 11.2 µM); in [10] it was 16 µg/mL (≈ 44.6 µM); in experiment [11] (setting [25]), 32 µg/mL (≈ 89.3 µM); in experiment [12] it was 8 µg/mL (≈ 22.3 µM). In experiment [13], the MIC amounted to 4 µg/mL (≈ 11.2 µM).
On to `CCCCCc1cc(O)c(C/C=C(\C)CCC=C(C)C)c(O)c1C(=O)O` [CBGA, cannabigerolic acid], for which the MIC in experiment [14] (setting [21]) is 16 µg/mL (≈ 44.4 µM); in experiment [14] (setting [22]), 16 µg/mL (≈ 44.4 µM); in experiment [15], 8 µg/mL (≈ 22.2 µM); in [16], 16 µg/mL (≈ 44.4 µM); in experiment [5] (setting [23]) it was 4 µg/mL (≈ 11.1 µM); in experiment [5] (setting [24]), 2 µg/mL (≈ 5.55 µM). The MIC is 8 µg/mL (≈ 22.2 µM) in experiment [6]; 8 µg/mL (≈ 22.2 µM) in experiment [17]; 2 µg/mL (≈ 5.55 µM) in [8]; 1 µg/mL (≈ 2.77 µM) in [10]; 16 µg/mL (≈ 44.4 µM) in experiment [11] (setting [25]); 2 µg/mL (≈ 5.55 µM) in experiment [12]. In experiment [13], this molecule came in with an MIC of 2 µg/mL (≈ 5.55 µM).
For `C/C1=C\CC/C(C)=C/CC(C)(C)/C=C/C1` [a-humulene], the “activities of the terpene with CBC, CBO, or CBG” value in experiment [2] is on record as “synergistic activities”.
